US9393181B2, “Dental materials with improved hydrolysis stability based on phthalic acid monomers” (Ivoclar Vivadent AG, priority 2011, dated 2016)

Tests used:
[1] = in aqueous solutions; cited from earlier work
Solubility in solvents = assay type: physicochemical; conditions: e.g. in ethanol or acetone
Procedure: Furthermore compositions which contain water as solvent (f) are preferred. The solubility of the phthalic acid derivatives of the Formula (I) in polar solvents is good.
4-hydroxyphthalic anhydride (6.70 g; 40.8 mmol), BHT (10 mg) and N-(11-bromoundecyl)-N-methyl acrylamide (13.00 g; 40.8 mmol) were dissolved in N,N-dimethylformamide (100 ml). Potassium carbonate (5.64 g; 40.8 mmol) was added. The yellow suspension was stirred at RT. Water (200 ml) was added to the reaction mixture after 20 d and the whole stirred for 1 h at RT. An oily white solid precipitated from the initially cloudy solution. The solvent was decanted off. The residue was dissolved in dilute aqueous Na2CO3 solution (5%; 100 ml). The milky/cloudy aqueous phase was washed with MtBE (5×100 ml). Diluted hydrochloric acid (2N, 100 ml) was added to the water phase (pH=1) and extraction with MtBE (8×100 ml) took place. The combined extracts were dried over Na2SO4, filtered and concentrated on the rotary evaporator. Chloroform (150 ml) was added to the residue and the whole stirred at RT. After 20 h the suspension was filtered. The filtration residue was washed with chloroform (50 ml) and discarded. The filtrate was concentrated on the rotary evaporator. The residue was dissolved in chloroform (50 ml). Acetonitrile (50 ml) was added. After 72 h storage at −18° C. the solvent was decanted off and the residue dried under a fine vacuum.

[2] = Hydrolysis stability of AAUPA in acidic solution, followed by 1H-NMR; assay type: physicochemical; conditions: 5% AAUPA, 200 ppm BHT, 5% phosphoric acid d3, 10% D2O, 80% DMSO-d6; stored at 37° C., standing time 12 weeks
Procedure: A solution of 5% of the phthalic acid acrylamide AAUPA stabilized with 200 ppm 2,6-di-t-butyl-4-methylphenol, 5% phosphoric acid d3, 10% D2O and 80% DMSO-d6 was prepared, was stored at 37° C. and examined spectroscopically with ^1H-NMR. After a standing time of 12 weeks, no changes were able to be established in the ^1H-NMR spectrum.

Structure (SMILES)	hydrolysis to 4-MET [1]	solubility (Solubility in solvents)	changes in the 1H-NMR spectrum (hydrolysis stability) [2]
C=C(C)C(=O)OCCOC(=O)c1ccc2c(c1)C(=O)OC2=O [Example 4-META]	very quickly hydrolyzed	–	–
C=CC(=O)N(C)CCCCCCCCCCCOc1ccc(C(=O)O)c(C(=O)O)c1 [AAUPA, 4-[11-(acryloyl-methyl-amino)-undecyloxy]phthalic acid]	–	dissolves very well	no changes
